# Measurements published in PubChem BioAssay (NCI).
#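 Each compound was tested at five concentrations against cells in 96-well plates for 48 hours. At the GI50, growth is halved. TGI: concentration producing complete growth inhibition.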
# Experiments:
# Assay in all cases: growth of human tumour cells (NCI), 48 h
# HOP-92 NSCLC = system: HOP-92 NSCLC
# LOX IMVI melanoma = system: LOX IMVI melanoma
# RPMI-8226 leukemia = system: RPMI-8226 leukemia
# A549 NSCLC = system: A549 NSCLC
# DU-145 prostate = system: DU-145 prostate
# SK-OV-3 ovarian = system: SK-OV-3 ovarian
# M14 melanoma = system: M14 melanoma
# NCI-H226 lung = system: NCI-H226 lung
# HL-60(TB) leukemia = system: HL-60(TB) leukemia
# HCC-2998 colon = system: HCC-2998 colon
Compound,GI50 (HOP-92 NSCLC) [µM],TGI (HOP-92 NSCLC) [µM],GI50 (LOX IMVI melanoma) [µM],TGI (LOX IMVI melanoma) [µM],GI50 (RPMI-8226 leukemia) [µM],TGI (RPMI-8226 leukemia) [µM],GI50 (A549 NSCLC) [µM],TGI (A549 NSCLC) [µM],GI50 (DU-145 prostate) [µM],TGI (DU-145 prostate) [µM],GI50 (SK-OV-3 ovarian) [µM],TGI (SK-OV-3 ovarian) [µM],GI50 (M14 melanoma) [µM],TGI (M14 melanoma) [µM],GI50 (NCI-H226 lung) [µM],TGI (NCI-H226 lung) [µM],GI50 (HL-60(TB) leukemia) [µM],TGI (HL-60(TB) leukemia) [µM],GI50 (HCC-2998 colon) [µM],TGI (HCC-2998 colon) [µM]
CCSc1nc(NC(C)c2ccccc2)c2cnn(CO)c2n1 (centres undefined),18.2,97.1,37,> 100,> 100,> 100,> 100,> 100,> 100,> 100,45.8,> 100,> 100,> 100,47,> 100,> 100,> 100,,
O=C1Nc2ccc(O)cc2/C1=C\c1ccncc1,31.2,> 100,12,25.6,34.1,> 100,26.2,82.8,19.5,54.2,58.9,> 100,15.8,39.6,,,36,> 100,,
Cc1cncc(-c2nc(NCCc3c[nH]c4ccccc34)c3ncn(C(C)C)c3n2)c1,3.63,15.5,4.61,15.5,2.28,5.23,4.28,> 100,4.41,22.1,5.76,35.7,3.94,16.9,4.69,20.5,,,4.12,15.1
O=CC1CCC=CC1NC(=O)OCc1ccccc1 (centres undefined),,> 100,,> 100,,> 100,,> 100,,,,> 100,,> 100,,> 100,,46.5,,
COC1=CC(c2ccc[nH]2)=N/C1=C\c1[nH]c(C)c(C(=O)Oc2ccccc2)c1C,0.189,0.564,0.0197,0.0472,0.284,2.02,0.344,2.01,0.295,> 100,1.68,7.35,,,0.438,1.96,,,0.243,1.42
O=C(COc1cccc(/C=C2\COc3ccccc3C2=O)c1)c1ccccc1,2.94,16.8,1.66,3.12,1.84,4.85,15.7,49.7,6.11,17.4,15.2,29,3.12,14,12.3,25.4,5.85,29.2,,
O=C(CCC(=O)Nc1ccc(Cl)cc1)CC(=O)c1ccc2ccccc2c1,,> 100,,> 100,,> 100,,> 100,,,,> 100,,> 100,,> 100,,> 100,,> 100
CN1C(=O)/C(=C2\S/C(=N\c3nnc(-c4ccccc4)o3)NC2=O)c2ccccc21,> 100,> 100,77.9,> 100,> 100,> 100,43.9,> 100,> 100,> 100,> 100,> 100,> 100,> 100,,,,,> 100,> 100
O=C(Nc1ccccc1)n1cc(-c2ccccn2)c(N2CCOCC2)n1,,> 100,,> 100,,> 100,,> 100,,,,> 100,,> 100,,> 100,,6.93,,> 100
CN(C)CCCOc1ccc(/C=C2/CCC/C(=C/c3ccc(OCCCN(C)C)cc3)C2=O)cc1,,9.72,,3.29,,3.43,,6.28,,,,4.18,,6.07,,,,3.65,,3.12
CC[O-].CC[O-].COc1ccc(C(=O)[CH-]C(C)=O)cc1OC.COc1ccc(C(=O)[CH-]C(C)=O)cc1OC.[Ti+4],32.1,65.9,80.3,> 100,44.6,> 100,> 100,> 100,,,,,83.8,> 100,> 100,> 100,43.3,> 100,> 100,> 100
CCC(C)C(=O)O[C@H]1C(=O)O[C@@H]2C[C@H]3C(C)=CC(=O)[C@@H](O)[C@]3(C)[C@H]3[C@@H](O)[C@H](O)[C@@]4(C)OC[C@]32[C@@H]14 (some centres undefined),,,,< 0.0246,,< 0.0266,,10.7,,< 0.0164,,0.58,,< 0.0216,,< 0.0259,,< 0.01,,< 0.024
C/C=C(\C)c1cc(=O)c2c(C)cc3c(c2o1)C(OC)(OC(C)=O)c1c(O)c(C2CC(C)(N(C)C)C(OC(C)=O)C(C)O2)cc(C2CC(N(C)C)C(OC(C)=O)C(C)O2)c1C3=O (centres undefined),,6.91,,,,,,> 100,,5.08,,8.59,,,,5.03,,,,
Cc1cc2nc3c(=O)[nH]c(=O)nc-3n(CC(O)C(O)C(O)CO)c2cc1N (centres undefined),,> 100,,> 100,,> 100,,> 100,,,,> 100,,> 100,,> 100,,> 100,,> 100
O=C[C@]12CC=C3OC4OC5(CCCCC5)OC4[C@H]3[C@H]1C(=O)C=CC2=O (some centres undefined),,,,,,,,> 100,,,,> 100,,38.7,,> 100,,2.78,,90.8
c1ccc(COCC[P+](c2ccccc2)(c2ccccc2)c2ccccc2)cc1,,,1.87,6.05,0.242,1.9,0.584,10.1,2.01,26.2,2.33,9.93,2.12,13.4,1.22,29.8,0.29,1.39,,
O=c1c2ccccc2nc2n1CCc1c-2[nH]c2cc3c(cc12)OCO3,,,,,,> 25,> 25,> 25,,,,> 25,,> 25,,,,> 25,,> 25
